In patent US20240279205A1, “NOVEL BENZIMIDAZOLE DERIVATIVE” (Carna Biosciences, Inc., priority 2020, published 2024):

target: T1, human STING (hSTING) (Homo sapiens, UniProt Q86WV6); experiment: Inhibition test of intracellular human STING (hSTING) pathway using SEAP reporter cells (HEK-Blue ISG), stimulation with Compound 3; assay type: cell-based; parameters: hSTING inhibitory activity: scale not given here; details: Compound 3 10 nM stimulation, 21 hours
T1 construct: host or cells: HEK-Blue ISG cells (HEK293-derived SEAP reporter line)
Summary of the method: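 IC50 derived by regressing inhibition rate against log compound concentration (0.1 to 10 μM final, added 1 h before agonist), with 0% and 100% set by wells without and with 10 nM Compound 3. SEAP colour reaction read after 21 h stimulation of HEK-Blue ISG reporter cells.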

T1 sequence (Q86WV6 whole entry H232R): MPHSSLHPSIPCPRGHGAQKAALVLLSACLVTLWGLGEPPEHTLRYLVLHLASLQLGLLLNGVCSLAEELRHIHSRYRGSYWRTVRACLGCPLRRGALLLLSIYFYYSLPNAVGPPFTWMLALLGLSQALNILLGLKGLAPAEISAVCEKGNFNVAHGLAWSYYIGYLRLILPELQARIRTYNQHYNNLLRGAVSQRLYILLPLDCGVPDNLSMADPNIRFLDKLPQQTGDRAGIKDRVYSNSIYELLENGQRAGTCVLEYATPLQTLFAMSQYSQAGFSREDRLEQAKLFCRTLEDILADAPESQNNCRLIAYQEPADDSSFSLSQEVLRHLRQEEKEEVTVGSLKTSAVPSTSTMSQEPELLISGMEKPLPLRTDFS

hSTING inhibitory activity	Compound
* *	Cc1cccc2[nH]c(Nc3c[nH]c4ccc(Br)cc34)nc12 [Example 5, N-(5-bromo-1H-indol-3-yl)-4-methyl-1H-benzo[d]imidazol-2-amine]
* *	Brc1cnc2[nH]cc(Nc3nc4cc(Oc5ccccc5)ccc4[nH]3)c2c1 [Example 10, N-(5-bromo-1H-pyrrolo[2,3-b]pyridin-3-yl)-5-phenoxy-1H-benzo[d]imidazol-2-amine]
* *	Brc1ccc2[nH]cc(Nc3nc4cc(Oc5cccnc5)ccc4[nH]3)c2c1 [Example 13, N-(5-bromo-1H-indol-3-yl)-5-(pyridin-3-yloxy)-1H-benzo[d]imidazol-2-amine]
* *	Ic1ccc2[nH]cc(Nc3nc4ccccc4[nH]3)c2c1 [Example 16, N-(5-iodo-1H-indol-3-yl)-1H-benzo[d]imidazol-2-amine]
* *	COC(=O)c1cccc2[nH]c(Nc3c[nH]c4ccc(Br)cc34)nc12 [Example 20, methyl 2-[(5-bromo-1H-indol-3-yl)amino]-1H-benzo[d]imidazole-4-carboxylate]

The remaining lines, values behind:

Compound	hSTING inhibitory activity
C[C@@H](O)Cn1c(Nc2c[nH]c3ccc(Cl)cc23)nc2cc(C(F)(F)F)ccc21 [Embodiment 239, (R)-1-{2-[(5-chloro-1H-indol-3-yl)amino]-5-(trifluoromethyl)-1H-benzo[d]imidazol-1-yl}propan-2-oar]	* *
C[C@H](O)Cn1c(Nc2c[nH]c3ccc(Cl)cc23)nc2cc(C(F)(F)F)ccc21 [Embodiment 243, (S)-1-{2-[(5-chloro-1H-indol-3-yl)amino]-5-(trifluoromethyl)-1H-benzo[d]imidazol-1-yl}propan-2-oar]	* *
CNn1c(Nc2c[nH]c3ccc(Cl)cc23)nc2cc(C(F)(F)F)cc(F)c21 [Embodiment 271, N2-(5-Chloro-1H-indol-3-yl)-7-fluoro-N1-methyl-5-(trifluoromethyl)-1H-benzo[d]imidazole-1,2-diamine]	* * *
CNn1c(Nc2c[nH]c3ccc(F)c(F)c23)nc2cc(C(F)(F)F)cc(F)c21 [Embodiment 272, N2-(4,5-difluoro-1H-indol-3-yl)-7-fluoro-N1-methyl-5-(trifluoromethyl)-1H-benzo[d]imidazole-1,2-diamine]	* * *
CNn1c(Nc2c[nH]c3cc(F)c(F)cc23)nc2cc(C(F)(F)F)cc(F)c21 [Embodiment 273, N2-(5,6-difluoro-1H-indol-3-yl)-7-fluoro-N1-methyl-5-(trifluoromethyl)-1H-benzo[d]imidazole-1,2-diamine]	* * *
Cn1c(Nc2c[nH]c3ccc(Cl)cc23)nc2cc(C(F)(F)F)c(F)c(F)c21 [Embodiment 274, N-(5-Chloro-1H-indol-3-yl)-6,7-difluoro-1-methyl-5-(trifluoromethyl)-1H-benzo[d]imidazol-2-amine]	* * *
CN(C)n1c(Nc2c[nH]c3ccc(Cl)cc23)nc2cc(C(F)(F)F)c(F)cc21 [Embodiment 275, N2-(5-Chloro-1H-indol-3-yl)-6-fluoro-N1,N1-dimethyl-5-(trifluoromethyl)-1H-benzo[d] imidazole-1,2-didiamine]	* * *
Cc1c(C(F)(F)F)ccc2c1nc(Nc1c[nH]c3ccc(Cl)cc13)n2C [Embodiment 276, N-(5-Chloro-1H-indol-3-yl)-1,4-dimethyl-5-(trifluoromethyl)-1H-benzo[d]imidazol-2-amine]	* * *
CNn1c(Nc2c[nH]c3ccc(C)cc23)nc2cc(C(F)(F)F)cc(F)c21 [Embodiment 277, 7-fluoro-N1-methyl-N2-(5-methyl-1H-indol-3-yl)-5-(trifluoromethyl)-1H-benzo[d]imidazole-1,2-diamine]	* * *
CN(C)n1c(Nc2c[nH]c3ccc(F)c(F)c23)nc2cc(C(F)(F)F)cc(F)c21 [Embodiment 278, N2-(4,5-difluoro-1H-indol-3-yl)-7-fluoro-N1,N1-dimethyl-5-(trifluoromethyl)-1H-benzo[d] imidazole-1,2-diamine]	* *
CN(C)n1c(Nc2c[nH]c3cc(F)c(F)cc23)nc2cc(C(F)(F)F)cc(F)c21 [Embodiment 279, N2-(5,6-difluoro-1H-indol-3-yl)-7-fluoro-N1,N1-dimethyl-5-(trifluoromethyl)-1H-benzo[d] imidazole-1,2-diamine]	* *
Cc1ccc2[nH]cc(Nc3nc4cc(C(F)(F)F)cc(F)c4n3N(C)C)c2c1 [Embodiment 280, 7-fluoro-N1,N1-dimethyl-N2-(5-methyl-1H-indol-3-yl)-5-(trifluoromethyl)-1H-benzo[d]imidazole-1,2-diamine]	* * *
Brc1ccc2[nH]cc(Nc3nc4ccccc4[nH]3)c2c1 [Example 1, N-(5-bromo-1H-indol-3-yl)-1H-benzo[d]imidazol-2-amine]	* *

same assay, conditions: Compound 3 10 nM stimulation, 21 hours, read-out: hSTING inhibitory activity

IC50	Compound
≥ 10 µM	c1ccc(-c2ccc3[nH]cc(Nc4nc5ccccc5[nH]4)c3c2)cc1 [Example 2, N-(5-phenyl-1H-indol-3-yl)-1H-benzo[d]imidazol-2-amine]
≥ 10 µM	Brc1cccc2[nH]cc(Nc3nc4ccccc4[nH]3)c12 [Example 9, N-(4-bromo-1H-indol-3-yl)-1H-benzo[d]imidazol-2-amine]
1 to 10 µM	Brc1cc2c(Nc3nc4cc(Oc5ccccc5)ccc4[nH]3)c[nH]c2cn1 [Example 11, N-(5-bromo-1H-pyrrolo[2,3-c]pyridin-3-yl)-5-phenoxy-1H-benzo[d]imidazol-2-amine]
≥ 10 µM	Fc1ccc2[nH]cc(Nc3nc4ccccc4[nH]3)c2c1 [Example 14, N-(5-fluoro-1H-indol-3-yl)-1H-benzo[d]imidazol-2-amine]
1 to 10 µM	Clc1ccc2[nH]cc(Nc3nc4ccccc4[nH]3)c2c1 [Example 15, N-(5-chloro-1H-indol-3-yl)-1H-benzo[d]imidazol-2-amine]
≥ 10 µM	Brc1cccc2c(Nc3nc4ccccc4[nH]3)c[nH]c12 [Example 17, N-(7-bromo-1H-indol-3-yl)-1H-benzo[d]imidazol-2-amine]

The next lines start with the compound.

Compound	IC50
CN(C)C(=O)Cn1c(Nc2c[nH]c3ccc(Cl)cc23)nc2cc(C(F)(F)F)ccc21 [Embodiment 229, 2-{2-[(5-chloro-1H-indol-3-yl)amino]-5-(trifluoromethyl)-1H-benzo [d]imidazol-1-yl}-N,N-dimethyl Acetamide]	≥ 10 µM
CS(=O)(=O)CCn1c(Nc2c[nH]c3ccc(Cl)cc23)nc2cc(C(F)(F)F)ccc21 [Embodiment 230, N-(5-Chloro-1H-indol-3-yl)-1-[2-(methylsulfonyl)ethyl]-5-(trifluoromethyl)-1H-benzo[d] imidazol-2-amine]	1 to 10 µM
CC(C)(O)Cn1c(Nc2c[nH]c3ccc(Cl)cc23)nc2cc(C(F)(F)F)ccc21 [Embodiment 234, 1-{2-[(5-chloro-1H-indol-3-yl)amino]-5-(trifluoromethyl)-1H-benzo [d]imidazol-1-yl}-2-methylpropane-2-oar]	1 to 10 µM
FC(F)(F)c1ccc2c(c1)nc(Nc1c[nH]c3ccc(Cl)cc13)n2N1CCOCC1 [Embodiment 235, N-(5-Chloro-1H-indol-3-yl)-1-morpholino-5-(trifluoromethyl)-1H-benzo[d]imidazol-2-amine]	1 to 10 µM
